From patent US9546194B2, “Aminosteroids for the treatment of a PTP1B associated disease” (Ohr Pharmaceutical Inc., priority 2012, dated 2017)

Key:
[1] = Body weight change in ob/ob mouse; type: in vivo; settings: ob/ob mice; 5 or 10 mg/kg ip every 3 days, 4 doses; % change in body weight vs study day 0, up to 30 days
Experimental: (§1) To determine in vivo efficacy of the aminosteroid analogues an ob/ob (Lep^ob) mouse model was used. Ob/ob mice are extensively used for screening of antidiabetic and/or anti-obesity agents. Ob/ob mice were treated with either saline or 5 or 10 mg/kg aminosteroid analogue every 3 days for a total of 4 doses via ip injection. Body weight, glucose tolerance and fasting blood glucose levels were measured for each group during the study. Each group had at least an N of 4 animals. All reagents and lab animals are commercially available.
Starting at study day 0, body weight measurements were taken every day for each group for up to 30 days. Percent change in body weight was calculated as the fractional response of body weight on study day X over the original body weight on study day 0.

[2] = molecular target: T1, full length tyrosine phosphatase PTP1B (Homo sapiens, UniProt P18031); test: Inhibition of PTP1B (pNPP hydrolysis, absorbance at 405 nm); type: biochemical; settings: 5 μM aminosteroid analogue; pNPP substrate; read-out: PTP1B % Inhib. at (5 μM)
T1 construct: purchased
T1 sequence (P18031 1-435): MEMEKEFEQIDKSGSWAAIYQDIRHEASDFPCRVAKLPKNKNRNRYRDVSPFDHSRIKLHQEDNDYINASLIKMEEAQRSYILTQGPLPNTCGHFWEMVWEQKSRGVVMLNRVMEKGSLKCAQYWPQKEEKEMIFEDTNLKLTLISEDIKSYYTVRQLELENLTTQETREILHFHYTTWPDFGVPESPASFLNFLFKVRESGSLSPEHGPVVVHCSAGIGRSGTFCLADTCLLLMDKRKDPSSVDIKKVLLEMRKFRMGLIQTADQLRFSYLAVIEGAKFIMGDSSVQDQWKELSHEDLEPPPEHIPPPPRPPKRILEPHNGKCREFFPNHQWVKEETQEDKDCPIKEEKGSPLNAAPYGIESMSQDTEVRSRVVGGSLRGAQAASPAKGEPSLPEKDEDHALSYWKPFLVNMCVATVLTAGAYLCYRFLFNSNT
Experimental: (§2) The aminosteroid analogues were tested for inhibition against the commercially available full length tyrosine phosphatase PTP1B. The ability of each analogue to inhibit the activity of PTP1B was measured in the presence of 5 μM of the aminosteroid analogue. The assay uses para-nitro-phenyl phosphate (pNPP), a non-specific substrate to assess phosphatase activity. Phosphatase activity was based on the ability of PTP1B to catalyze the hydrolysis of pNPP to p-nitrophenol (pNP).

ob/ob (Lep^ob) mouse [3] = test: Oral glucose tolerance test (OGTT) in ob/ob mouse; type: in vivo; settings: ob/ob mice; for change in vivo: Mus musculus, 336 h, 5 or 10 mg/kg ip every 3 days, 4 doses, OGTT study day 14, 1.5 g/kg oral glucose, 0-120 min, read-out: AbAUC % Change From Saline; for reduction in AbAUC compared to saline control (significance): OGTT study day 14, p<0.05
Experimental: as §1
On study day 14, an oral glucose tolerance test (OGTT) was performed to assess glucose tolerance. At time 0, an oral glucose challenge (1.5 g/kg) was administered by oral gavage. At time points 0, 15, 30, 60, 90, and 120 min post glucose load, 25 μl of whole blood was withdrawn from the tail vein of the animal and the glucose level was measured using a glucose analyzer. The glucose concentration vs time was plotted and the above baseline area under the curve (AbAUC) of the glucose excursion time curve was determined using trapezoidal rule analyses.

full length TCPTP = molecular target: T2, full length TCPTP (Homo sapiens, UniProt P17706); test: Inhibition of TCPTP (pNPP hydrolysis, same manner as PTP1B assay); type: biochemical; settings: 200 μM inhibitor; pNPP substrate; read-out: TCPTP % Inhib. at (200 μM)
T2 construct: except full length TCPTP was used as the enzyme
T2 sequence (P17706 1-415): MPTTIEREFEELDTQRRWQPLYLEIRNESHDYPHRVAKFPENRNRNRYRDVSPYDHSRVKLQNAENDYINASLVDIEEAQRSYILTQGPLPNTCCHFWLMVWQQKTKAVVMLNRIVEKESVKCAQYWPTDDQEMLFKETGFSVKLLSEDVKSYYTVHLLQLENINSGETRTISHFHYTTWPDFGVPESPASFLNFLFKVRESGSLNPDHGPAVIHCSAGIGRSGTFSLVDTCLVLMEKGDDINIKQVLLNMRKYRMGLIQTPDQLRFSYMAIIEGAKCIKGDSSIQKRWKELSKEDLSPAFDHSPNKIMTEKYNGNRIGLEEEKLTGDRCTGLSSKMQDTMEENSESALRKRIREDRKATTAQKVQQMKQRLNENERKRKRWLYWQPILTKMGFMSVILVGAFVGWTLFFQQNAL
Experimental: as §2
The aminosteroid analogues were also tested for their ability to inhibit the tyrosine phosphatase TCPTP as an indication of their potential toxicity by the inhibition of the immune response. The TCPTP inhibition assay was done in the same manner as the PTP1B assay except full length TCPTP was used as the enzyme and the inhibitor was at a concentration of 200 μM. The results of the TCPTP inhibition assays are shown in Table 1, column 4 and show three compounds that inhibit TCPTP less than 50% even at a […] greater concentration.

ob/ob (Lep^ob) mouse [4] = test: Fasting blood glucose (FBG) in ob/ob mouse; type: in vivo; settings: ob/ob mice; 5 or 10 mg/kg ip every 3 days, 4 doses; study day 14 after overnight fast
Experimental: as §1
On study day 13, all animal groups were fasted overnight. On study day 14, 25 μL of whole blood was collected and analyzed for the glucose level (mg/dL) using a glucose analyzer.

| SMILES | % BW Nader [1] [%] | inhibition at 5 µM [2] [%] | change in vivo (ob/ob (Lep^ob) mouse [3]) [%] | inhibition at 200 µM (full length TCPTP) [%] | FBG % Change From Saline (ob/ob (Lep^ob) mouse [4]) [%] | reduction in AbAUC compared to saline control (significance) (ob/ob (Lep^ob) mouse [3]) |
| --- | --- | --- | --- | --- | --- | --- |
| COC(=O)CC[C@@H](C)[C@H]1CCC2C3CC[C@@H]4C[C@H](NCc5ccccn5)CC[C@]4(C)C3C[C@H](O)[C@@]21C (some centres unmarked) [MSI-2512] | 0.4 | 90 | -5.8 | -2 | 45.8 | – |
| COC(=O)CC[C@@H](C)[C@H]1CCC2C3C(CC[C@@]21C)[C@@]1(C)CC[C@H](NCCNC(C)C)C[C@@H]1C[C@H]3NC(C)=O (some centres unmarked) [MSI-2532] | −0.8 | 53 | -56.6 | 4 | −0.7 | significant reduction |
| COC(=O)CC[C@@H](C)[C@H]1CCC2C3C(CC[C@@]21C)[C@@]1(C)CC[C@H](NCCNC(C)C)C[C@H]1C[C@H]3O (some centres unmarked) [MSI-2520] | 0.5 | 103 | -30.1 | 19 | 34.7 | significant reduction |
| COC(=O)CC[C@@H](C)[C@H]1CCC2C3C(CC[C@@]21C)[C@@]1(C)CC[C@@H](NCCN2CCCCC2)C[C@H]1C[C@H]3O (some centres unmarked) [MSI-2507] | 1.4 | 94 | -45.8 | -11 | −9.4 | significant reduction |
